In US20220338769A1, “METHODS AND APPARATUS FOR SUBSTANCE DELIVERY IN AN IMPLANTABLE DEVICE” (GlySens Incorporated, priority 2021, published 2022):

Assays:
[1] = cited from earlier work
[2] = human, in vivo
[3] = Expected patient plasma DXA at the exemplary elution rates; format: in vivo; details: below LOQ
Protocol: With a manufacturing process that consists of at least two months (60 days) from the start of elution until implant, and using data from in vitro release testing, a daily release of between approximately 2 and 5 μg DXA in one exemplary embodiment is expected over the life of the implant (average of approximately 3 μg/day). These exemplary elution rates are within range of the elution rates seen in the above-referenced predicate devices. At these elution rates, it can be reasonably expected that patient plasma DXA levels to be below the 50 pg/mL LOQ. The full modeled release profile is shown in FIG. 2, which illustrates total release 212 of DXA from the implantable sensor device accumulating prior to implantation with, daily release 214 of DXA from the implantable sensor starting at a rate of approximately 4.8 μg per day upon implantation and gradually reducing to below 2.0 μg/day over the period of implantation. In other embodiments, DSP, other dexamethasone compounds, and/or other eluting anti-inflammatory drugs may be used similarly.

[4] = cited from earlier work; remark: listed apart in the source

SMILES	plasma DXA ([1]; one device implanted, no measurable DXA, LOQ = 50 pg/mL) [pg/mL]	maximum reported plasma DXA ([1]; two devices implanted) [pg/mL]	time DXA measurable in plasma after implant ([1]; two devices implanted, some patients)	daily dose required to have a DXA level greater than the LOQ in plasma [2] [µg]	expected patient plasma DXA levels [3] [pg/mL]	water solubility [4]
CC(=O)OCC(=O)[C@@]1(O)[C@H](C)C[C@H]2[C@@H]3CCC4=CC(=O)C=C[C@]4(C)[C@@]3(F)[C@@H](O)C[C@@]21C [DXA, dexamethasone acetate]	< 50	114	up to 8 days	≥ 15	< 50	
C[C@@H]1C[C@H]2[C@@H]3CCC4=CC(=O)C=C[C@]4(C)[C@@]3(F)[C@@H](O)C[C@]2(C)[C@@]1(O)C(=O)COP(=O)(O)O [DSP, dexamethasone sodium phosphate]						highly water soluble
